Experimental data published in ChEMBL document CHEMBL1157539, “Thousands of chemical starting points for antimalarial lead identification” (Nature, 2010).

Each compound was assayed on Plasmodium falciparum (assay: GSK_TCMDC: Inhibition of Plasmodium falciparum 3D7 in whole erythrocytes, using parasite LDH activity as an index of growth.). Conditions: Plasmodium falciparum, 3D7.
Type: functional, organism-based

First: COc1ccc2[nH]cc(C3=CCN(Cc4ccccc4)CC3)c2c1
Second: CCN(c1cc(C)nc(Nc2ccc(Cl)cc2)n1)[C@H]1CCN(Cc2ccccc2)C1
The XC50 of the first is 1.5-fold lower: 569 nM for the first, 855 nM for the second.

First: ON=C1CCc2cc(-c3cc(-c4ccc(OC5CCNCC5)cc4)oc3-c3ccncc3)ccc21
Second: Cc1nc(-c2ccc(-c3ccc(C(=O)Nc4ccc(I)c(OCC5CCCN5C)c4)cc3)c(C)c2)no1 (configuration not stated)
The XC50 of the first is 4.8-fold higher: 157 nM for the first, 33 nM for the second.

First: CCN(CC)CCNc1ccnc2[nH]c3ccc(C)cc3c12
Second: Cc1cccc(C)c1CNc1ccnc2cc(Br)ccc12
The XC50 of the first is 3.9-fold higher: 669 nM for the first, 172 nM for the second.

`Nc1c(Cl)cc(C(O)CNCCCCCOCCCc2ccc3ncccc3c2)cc1Cl` (configuration not stated) and `CCN(CC)S(=O)(=O)c1ccc(CCOCCCCCNCC(O)c2cc(Cl)c(N)c(Cl)c2)s1` (configuration not stated) are within 1.5-fold of each other in XC50: 978 nM for the first, 858 nM for the second.

`N#Cc1ccc(N/C(=N\c2cccc(Cl)c2Cl)NC2Cc3ccccc3C2)c(O)c1` and `O=C(Nc1ccc([N+](=O)[O-])cc1Cl)c1cc2ccccc2cc1O` are within 1.5-fold of each other in XC50: 832 nM for the first, 1010 nM for the second.

`COCCCNC(=O)[C@H]1CNCCN1C(=O)c1ccccc1` and `CCCCCCNC(=O)C1Cc2c([nH]c3ccc(C)cc23)C2(CCN(Cc3ccccc3)CC2)N1` (configuration not stated) are within 1.5-fold of each other in XC50: 802 nM for the first, 982 nM for the second.

Going from `CN(C)CCNCc1cccc(-c2ccc3c(Nc4cc(O)c(Cl)cc4F)ccnc3c2)c1` to `CN(C)Cc1ccc(-c2ccc3c(Nc4ccc(Cl)cc4F)ccnc3c2)o1`, the XC50 falls from 549 nM to 241 nM (2.3-fold).

Compared with `CC(C)n1nc(C(=O)N2CCN(c3ccccc3)CC2)c2ccccc2c1=O`, `CC(CNC(=O)C(c1cc2ccccc2o1)N1CCN(C(c2ccccc2)c2ccccc2)CC1)c1ccccc1` (configuration not stated) is 1.6-fold lower in XC50: 979 nM for the first, 626 nM for the second.

`CNC(=O)COC(=O)c1c2c(nc3ccccc13)C(=Cc1ccc3c(c1)OCO3)CCC2` and `Oc1cccc(Nc2nc(NCC3CCCO3)c3ccccc3n2)c1` (configuration not stated) are within 1.5-fold of each other in XC50: 643 nM for the first, 812 nM for the second.

First: CC(C)(C)c1ccc(-c2cc3c(ccc4nc(N)nc(N)c43)[nH]2)cc1
Second: CC(C)(C)c1ccc(CNC(=O)/C=C/c2ccc(-c3nc4cc(C(C)(C)C)ccc4[nH]3)cc2)cc1
The XC50 of the first is 4.8-fold lower: 113 nM for the first, 545 nM for the second.

Compared with `CCOc1ccc(Nc2ccc3nonc3c2S(=O)(=O)Nc2ccc(OCC)cc2)cc1`, `CCNc1cc(C)nc(Nc2ccc(NS(=O)(=O)c3cc(OC)ccc3OC)cc2)n1` is 1.7-fold higher in XC50: 505 nM for the first, 853 nM for the second.

`O=C(Nc1nc(-c2cc(F)ccc2F)cs1)c1cncc(Br)c1` and `N=C(N)Nc1nc(-c2cccc(NC(=O)NCc3cccc4ccccc34)c2)cs1` are within 1.5-fold of each other in XC50: 1080 nM for the first, 841 nM for the second.

First: Cc1nc(-c2cccc(Nc3ccnc4cc(-c5nccs5)ccc34)c2)no1
Second: Oc1cccc(Nc2ccnc3cc(-c4cc5ccccc5o4)ccc23)c1
The XC50 of the first is 2.4-fold lower: 322 nM for the first, 763 nM for the second.

`N=C(N)NC(=O)Nc1cc(Br)c(Br)c(Br)c1` and `Cc1sc(CNCCCNc2cc(=O)c3ccccc3[nH]2)cc1Br` are within 1.5-fold of each other in XC50: 809 nM for the first, 764 nM for the second.

Going from `Cn1c(N)c(N=O)c(=O)[nH]c1=O` to `O=C1COc2ccc(S(=O)(=O)N3CCC[C@@H]3CCN3CCC(c4c[nH]c5cnccc45)CC3)cc2N1`, the XC50 rises from 176 nM to 865 nM (4.9-fold).

`COc1ccc(-c2nc3cc4ccccc4nc3[nH]2)c(OCC(O)CNC(C)C)c1` (configuration not stated) and `COc1ccc(Cl)cc1N1CCN(CCCNC(=O)c2ccc(-c3nc4cc5ccccc5cc4[nH]3)c(F)c2)CC1` are within 1.5-fold of each other in XC50: 694 nM for the first, 804 nM for the second.

First: OCC1CCN(Cc2cccc(-c3cccc(-c4nc5cc(C(F)(F)F)ccc5[nH]4)c3)c2)CC1
Second: NC(=O)C1CCN(Cc2ccc(-c3ccc(-c4nc5cc(F)ccc5[nH]4)cc3)cc2)CC1
The XC50 of the first is 1.6-fold lower: 506 nM for the first, 809 nM for the second.

First: Cc1ccc(C2CCN(CCCCNC(=O)c3ccc(-c4ccc(C#N)cc4)cc3)CC2)c(O)c1
Second: COc1cccc(C2CCN(CCCCNC(=O)c3ccc(NC(=O)c4ccc(Cl)cc4)cc3)CC2)c1
The XC50 of the first is 3.3-fold lower: 292 nM for the first, 965 nM for the second.

First: COc1ccc2ncc(F)c([C@H](O)CN3CCC(NCc4cc5c(cn4)OCCO5)CC3)c2c1
Second: Cc1ccc(C(=O)Nc2ccnc(N(C)C3CCN(Cc4cccc(O)c4)CC3)c2)cn1
The XC50 of the first is 6.4-fold lower: 292 nM for the first, 1880 nM for the second.

`CCCCCCc1cc(Oc2c(I)cc(C[C@H](N)C(=O)O)cc2I)ccc1O` and `CCCCCCCCNc1c2ccc(Cl)cc2nc2ccc(OC)cc12` are within 1.5-fold of each other in XC50: 906 nM for the first, 805 nM for the second.

Going from `CC[C@@H]([C@@H](CC(C)C)C(=O)N[C@@H](CCCCNC(=O)OCc1ccccc1)C(=O)Nc1ccccn1)N(O)C=O` to `Cc1cc(N[C@@H](Cc2ccccc2)C(=O)NC2CCCC2)nc(NCCCOC(C)C)n1`, the XC50 rises from 108 nM to 1480 nM (14-fold).

Going from `O=C(NCCCCN1CCC(c2ccc3ccccc3c2)CC1)c1ccc(NC(=O)c2ccc(Cl)cc2)cc1` to `CCOc1cc(C)ccc1NC1CCN(CCCCNC(=O)c2ccc(NC(=O)c3ccc(Cl)cc3)cc2)CC1`, the XC50 rises from 226 nM to 714 nM (3.2-fold).

Compared with `CCCc1cn2c3c(cc(C(=O)N[C@@H](Cc4ccccc4)[C@H](O)CNC4CCOCC4)cc13)N(C)S(=O)(=O)CC2`, `COc1cccc(CNC[C@@H](O)[C@H](Cc2ccccc2)NC(=O)c2cc(C3CCCC3)cc(N3CCCCS3(=O)=O)c2)c1` is 13-fold higher in XC50: 47.7 nM for the first, 599 nM for the second.

Going from `NC1CCN(c2cnn(Cc3cccc(NC(=O)Nc4ccc(-c5ccccc5)cc4)c3)c(=O)c2Cl)CC1` to `Cc1cccc2nc(-c3cccc(-c4ccc(NC(=O)Nc5cccc(C#N)c5)cc4)c3)[nH]c12`, the XC50 falls from 1140 nM to 187 nM (6.1-fold).

Going from `COCCNCc1cccc(-c2ccc3c(Nc4ccc(Oc5ccccc5)cc4)ccnc3c2)c1` to `COCCNCc1ccc(-c2cccc(CN(C(=O)CCC3CCCC3)C3CCN(Cc4ccccc4)CC3)c2)cc1`, the XC50 rises from 517 nM to 938 nM (1.8-fold).

`N=C(N)NN=Cc1c2ccccc2c(Cl)c2cc(Cl)ccc12` and `Cc1c(Cl)cccc1N=C(S)NN=Cc1ccccn1` are within 1.5-fold of each other in XC50: 791 nM for the first, 603 nM for the second.

Compared with `Cc1[nH]c(C)c(-c2ccc(-c3ccc(C(F)(F)F)cc3C(F)(F)F)nc2)c(=O)c1Br`, `CN(Cc1cc(C(F)(F)F)cc(C(F)(F)F)c1)C(=O)C1CNCC1c1ccc(F)cc1` (configuration not stated) is 4.4-fold higher in XC50: 187 nM for the first, 828 nM for the second.

`COc1cccc2c(NN=Cc3cccc(F)c3)ccnc12` and `Fc1ccc(C=NNc2nc3ccccc3[nH]2)cc1` are within 1.5-fold of each other in XC50: 932 nM for the first, 783 nM for the second.

`O=[N+]([O-])c1cccc(CNCC2CCN(Cc3ccc(Cl)c(Cl)c3)CC2)c1` and `O=C(N[C@H]1CCN(Cc2ccc(OC3CCN(Cc4ccccc4)CC3)c(Br)c2)C1)c1ccc(Cl)c(Cl)c1` are within 1.5-fold of each other in XC50: 913 nM for the first, 783 nM for the second.

`CCCCCCC(C)c1cc(O)c2c(c1)OC(C)(C)c1ccncc1-2` (configuration not stated) and `CCCCCCn1c(Sc2ccc(C#N)c([N+](=O)[O-])c2)nnc1-c1ccc(N(C)C)cc1` are within 1.5-fold of each other in XC50: 797 nM for the first, 1070 nM for the second.

Going from `CN(C)CCOc1cc(NC(=O)Nc2ccc(Cl)cc2C(F)(F)F)ccc1I` to `CCCOc1ccc(C(F)(F)F)cc1NC(=O)c1nc2nc(C)cc(C)n2n1`, the XC50 falls from 930 nM to 251 nM (3.7-fold).

`CN(CCCCN)Cc1ccc(-c2ccc(Cl)cc2)cc1` and `CCCC[C@@H](C(=O)NCCc1ccc(Cl)cc1)N1C(=O)CCC1C(=O)Nc1ccc(Cl)c(Cl)c1` (some centres not stated) are within 1.5-fold of each other in XC50: 882 nM for the first, 873 nM for the second.

`Cc1nc(C)c(-c2ccc(Oc3ccc(OC(F)(F)F)cc3)cc2)c(OC(=O)N(CCNC(C)C)C(C)C)c1Br` and `Cc1nc(C)c(-c2ccc(Oc3ccc(OC(F)(F)F)cc3)cc2)c(OC(=O)c2ccc(CN(C)C)cc2)c1Cl` are within 1.5-fold of each other in XC50: 171 nM for the first, 137 nM for the second.

`CNCCNCc1ccc(-c2ccc(-c3nc4ccccc4[nH]3)s2)cc1` and `O=C(Cc1c[nH]cn1)Nc1ccc(-c2ccc(-c3nc4ccccc4[nH]3)s2)cc1` are within 1.5-fold of each other in XC50: 865 nM for the first, 1060 nM for the second.

`O=C(Nc1ccc2oc(-c3ccc(Cl)cc3Cl)nc2c1)c1ccc([N+](=O)[O-])o1` and `O=C(Nc1ccc2c(c1)CCCN2S(=O)(=O)c1cccs1)c1cc([N+](=O)[O-])ccc1Cl` are within 1.5-fold of each other in XC50: 1100 nM for the first, 845 nM for the second.

`Cn1cnc(CCNC(=O)c2ccc(-c3ccc(-c4nc5cc(C(F)(F)F)ccc5[nH]4)s3)cc2)c1` and `Cn1cncc1C(=O)Nc1cccc(-c2ccc(-c3nc4cc(C(F)(F)F)ccc4[nH]3)cc2)c1` are within 1.5-fold of each other in XC50: 402 nM for the first, 509 nM for the second.

Compared with `Cc1cccc(C=NN=c2cc(C)[nH]c3ccc(F)cc23)n1`, `O=C(Nc1cccc(F)c1)NC1CCN(c2ccnc3cc(Cl)ccc23)C1` (configuration not stated) is 5.3-fold lower in XC50: 1000 nM for the first, 189 nM for the second.

Going from `CN(C)C(=O)CCCn1c(CNCCCNc2cc(=O)c3ccccc3[nH]2)cc2c(Cl)cc(Cl)cc21` to `O=c1cc(NCCCNCc2scc(I)c2I)[nH]c2ccccc12`, the XC50 falls from 1190 nM to 586 nM (2-fold).

`CC(C)C1=C[C@H]2C[C@]3(C4OCCO4)[C@@H]4CC[C@@H](C)[C@H]4C[C@@]2(COCc2cccc(C#N)c2)[C@]13C(=O)OC(c1ccccc1)c1ccccc1` and `CN(Cc1ccccc1)C1CCN(c2cc(NC(=O)c3cccc(F)c3)ccn2)CC1` are within 1.5-fold of each other in XC50: 1790 nM for the first, 1510 nM for the second.

Going from `O=C(Cc1ccc(NC(=O)c2ccc(O)c(-c3ccc(Cl)c(Cl)c3)c2)cc1)NCCN1CCCCC1` to `O=c1c2sc(-c3ccc(Cl)cc3)cc2ncn1Cc1ccc(OCCN2CCCC2)c2ccccc12`, the XC50 falls from 841 nM to 252 nM (3.3-fold).

Going from `Oc1c(Cl)cc(-c2ccccc2)cc1CNC1CCCCC1` to `Cc1nnc2c(NC(=O)NC3CCCC3)cc3cc(-c4ccc(CN(C)C)cc4)ccc3n12`, the XC50 rises from 749 nM to 1470 nM (2-fold).

First: N#Cc1ccc2c(c1)CCN(CCC1CCC(NC(=O)/C=C/c3cnc4ccccc4c3)CC1)CC2 (configuration not stated)
Second: O=C(Nc1ccc2c(c1)CCN(C1CCC1)CC2)c1ccc(-n2ccnc2)cn1
The XC50 of the first is 3.2-fold higher: 1210 nM for the first, 373 nM for the second.

`Cc1cccc2nc(-c3ccc(-c4cccc(NC(=O)CCc5c[nH]cn5)c4)s3)[nH]c12` and `Ic1cc(Nc2ncnc3ccsc23)ccc1OCc1ccccc1` are within 1.5-fold of each other in XC50: 838 nM for the first, 773 nM for the second.

`CN1CCN(c2cc(-c3cccc(C(F)(F)F)c3)nc(-c3ccncc3)n2)CC1` and `CN1CCN(c2ccc(Nc3c(C(N)=O)cnc4cc(-c5ccoc5)ccc34)cc2C(F)(F)F)CC1` are within 1.5-fold of each other in XC50: 731 nM for the first, 785 nM for the second.

Going from `Cc1c(CNCCCNc2cc(=O)c3ccccc3[nH]2)sc(C(F)=C(F)F)c1Br` to `CCn1ncc2c(N3CCCC3=O)cc(C(=O)N[C@@H](Cc3ccccc3)[C@H](O)CNC(C)(C)c3cccc(C(F)(F)F)c3)cc21`, the XC50 falls from 836 nM to 149 nM (5.6-fold).

Going from `Oc1ccc(OCc2ccccn2)cc1` to `CCOc1ccccc1CNc1nccc(NCc2ccccc2OC)n1`, the XC50 rises from 980 nM to 1490 nM (1.5-fold).

Going from `COC(=O)c1ccc(-c2ccc(C(=O)NCC3CCN(c4nc(N)c5cc(OC)c(OC)cc5n4)CC3)cc2)cc1` to `CO/C(=C\C=C\c1cc2cc(Cl)c(Cl)cc2[nH]1)C(=O)NCCCN1CCN(c2ccc(OC)cc2)CC1`, the XC50 rises from 185 nM to 700 nM (3.8-fold).

`C[C@H](NC(=O)c1c(CN2CCC(NC(=O)CC(C)(C)C)CC2)c(-c2cccs2)nc2ccccc12)C1CCCCC1` and `O=C(Nc1ccc(F)c(C(F)(F)F)c1)NC1CCN(CCCCCNC(=O)C2CC2c2ccc(Cl)c(Cl)c2)CC1` (configuration not stated) are within 1.5-fold of each other in XC50: 947 nM for the first, 663 nM for the second.

Work on `CN(C)CCOC(=O)C1(O)CCC2CC1C2(C)C` (configuration not stated) yielded an XC50 of 984 nM.
